The results in this text go back to PubChem BioAssay (NCI).

The structures appear in SMILES notation.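 Tested at 5 concentrations; 48 h exposure; 96-well plates; endpoints linearly interpolated, else capped at highest concentration. GI50: concentration for 50% inhibition of growth. TGI is the concentration that stops growth completely.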 *1 amine or outer side, *2 acyl side, *3 side chain or, on linkers, in order; H or OH if unused. Where a SMILES comes first, the peptide text is derived from it. [ ]: non-standard residue; d: D form. The star is where a group is joined. X12 = NCCCCC(N[*:1])C(=O)CN1CCCC1C(=O)[*:2]; Pentadecanoyl = CCCCCCCCCCCCCCC(=O)* Bounds are passed on as bounds.

Among the test systems are M14 melanoma; SF-268 CNS; MDA-MB-231 breast; UO-31 renal; OVCAR-5 ovarian; RXF 393 renal; KM12 colon; HCT-15 colon; U251 CNS; SK-OV-3 ovarian.
Holding throughout (assay): growth of human tumour cells (NCI), 48 h

For `O=C(Nc1ccccc1C(=O)O)C(=Cc1ccccc1O)NC(=O)c1ccccc1`, the TGI in the experiment on M14 melanoma, with SF-268 CNS, with MDA-MB-231 breast, in the experiment on UO-31 renal, in the experiment with OVCAR-5 ovarian and with RXF 393 renal was over 100 µM in each case. Further, the TGI with KM12 colon, with HCT-15 colon, in the experiment on U251 CNS and in the experiment with SK-OV-3 ovarian was over 100 µM throughout.
On to `CCOC(=O)CCC1(C(=O)O[C@@H]2C[C@H](C)CC[C@H]2C(C)C)CCCCC1=O` (stereo partly drawn), for which the TGI in the experiment with M14 melanoma, in the experiment with SF-268 CNS, in the experiment with MDA-MB-231 breast, in the experiment with UO-31 renal, in the experiment on OVCAR-5 ovarian and in the experiment on RXF 393 renal was over 100 µM throughout. Besides, the TGI with KM12 colon, with HCT-15 colon, with U251 CNS and in the experiment with SK-OV-3 ovarian was over 100 µM each time.
With `CCCCCC(=O)OCC1(CO)C/C(=C/CC(C(C)C)C(C)C)C(=O)O1` (stereo not drawn), the TGI was over 75 µM with SF-268 CNS; over 75 µM with MDA-MB-231 breast; 38.2 µM in the experiment with UO-31 renal; over 75 µM in the experiment with OVCAR-5 ovarian; over 75 µM in the experiment with RXF 393 renal; 37.4 µM in the experiment with KM12 colon. In addition, the TGI with HCT-15 colon, in the experiment with U251 CNS and in the experiment on SK-OV-3 ovarian was over 75 µM in each case.
For the compound `CC1=NNC(N)=N/C1=C\C(Sc1ccc(Cl)cc1)c1ccc(Cl)cc1Cl` (stereo not drawn), the TGI with M14 melanoma is 31.8 µM; in the experiment on SF-268 CNS, 33.2 µM; in the experiment on MDA-MB-231 breast, over 52.3 µM; in the experiment on UO-31 renal it was 27 µM; in the experiment with OVCAR-5 ovarian it was 36.7 µM; with RXF 393 renal, 50.9 µM. Further, the TGI with KM12 colon is 34.2 µM; with HCT-15 colon it was 30.4 µM; in the experiment on U251 CNS it was over 57.1 µM; with SK-OV-3 ovarian, 41.9 µM.
With `O=C(O)CCC(NC(=O)/C(=C/c1ccccc1)NC(=O)c1ccccc1)C(=O)O` (stereo not drawn), the TGI in the experiment on M14 melanoma, with SF-268 CNS, in the experiment on MDA-MB-231 breast, with UO-31 renal, in the experiment on OVCAR-5 ovarian and in the experiment on RXF 393 renal was over 100 µM in each case. Also, the TGI in the experiment with KM12 colon, with HCT-15 colon and in the experiment on SK-OV-3 ovarian was over 100 µM in each case.
For the compound `O=c1[nH]c(=O)c2c([nH]1)[nH]c1ccccc12`, the TGI in the experiment on M14 melanoma, in the experiment with SF-268 CNS, in the experiment with MDA-MB-231 breast, in the experiment with UO-31 renal, with OVCAR-5 ovarian and in the experiment with RXF 393 renal was over 100 µM in each case. Further, the TGI with KM12 colon, with HCT-15 colon and in the experiment on SK-OV-3 ovarian was over 100 µM throughout.
Take `C[C@@H]1CC(=O)[C@@]2(C)[C@](O)(CCC3O[C@]32C)[C@@]12CC(c1ccoc1)OC2=O` (stereo partly drawn): the TGI in the experiment on M14 melanoma is over 100 µM; with MDA-MB-231 breast, over 100 µM; with UO-31 renal, over 100 µM; in the experiment on OVCAR-5 ovarian, over 100 µM; in the experiment on RXF 393 renal, 88.6 µM; in the experiment on KM12 colon it was over 100 µM. Moreover, the TGI in the experiment with HCT-15 colon, with U251 CNS and in the experiment on SK-OV-3 ovarian was over 100 µM in each case.
Regarding `C/C(=N/NC(=O)c1ccccc1Nc1ccccc1C(=O)N/N=C(\C)c1ccc(C)cc1)c1ccc(C)cc1`, the TGI in the experiment on M14 melanoma, in the experiment on SF-268 CNS, with MDA-MB-231 breast, in the experiment with UO-31 renal, in the experiment on OVCAR-5 ovarian and with RXF 393 renal was over 100 µM throughout. Besides, the TGI with KM12 colon, in the experiment on HCT-15 colon, in the experiment with U251 CNS and with SK-OV-3 ovarian was over 100 µM each time.
Regarding `O=C(CSCC(=O)N/N=C\c1cccc(Br)c1)N/N=C\c1cccc(Br)c1`, the TGI in the experiment with M14 melanoma came to 49.9 µM; with SF-268 CNS it was 37.9 µM; with MDA-MB-231 breast it was 26.2 µM; in the experiment with UO-31 renal, 33.1 µM; with OVCAR-5 ovarian, 33.6 µM; in the experiment with RXF 393 renal it was 67.9 µM. Further, the TGI in the experiment on KM12 colon worked out at 32.8 µM; in the experiment with HCT-15 colon, 86.5 µM; in the experiment on U251 CNS it was 28.8 µM; in the experiment on SK-OV-3 ovarian it was 40.6 µM.
Regarding `COc1ccc2c(-c3csc(-c4c[nH]c5ccccc45)n3)c[nH]c2c1`, the TGI in the experiment on M14 melanoma was 53.1 µM; in the experiment with SF-268 CNS, 26 µM; in the experiment with MDA-MB-231 breast it was over 37.6 µM; in the experiment on UO-31 renal it was 30.6 µM; in the experiment on OVCAR-5 ovarian, over 50.7 µM; in the experiment on RXF 393 renal, 17.9 µM. Also, the TGI in the experiment with KM12 colon was 14.8 µM; with HCT-15 colon it was over 100 µM; in the experiment on U251 CNS it was 29.8 µM; in the experiment on SK-OV-3 ovarian, 42.7 µM.
In the case of `COc1ccc(C2CCc3c(cnc4nc(N)nc(N)c34)C2)cc1` (stereo not drawn), the TGI in the experiment with M14 melanoma is over 100 µM; in the experiment on SF-268 CNS, over 100 µM; with MDA-MB-231 breast it was over 100 µM; with OVCAR-5 ovarian it was over 100 µM; with RXF 393 renal it was 42.6 µM; in the experiment on KM12 colon, over 100 µM. The TGI in the experiment on HCT-15 colon is over 100 µM; with U251 CNS, over 100 µM; with SK-OV-3 ovarian, 50.1 µM.
Regarding `O=C1CSC(c2cc3cc(Br)ccc3nc2Cl)N1c1ccc(F)c(Cl)c1` (stereo not drawn), the TGI in the experiment with M14 melanoma, in the experiment with SF-268 CNS, in the experiment on MDA-MB-231 breast, with UO-31 renal, with OVCAR-5 ovarian and with RXF 393 renal was over 50 µM throughout. Further, the TGI with KM12 colon, in the experiment with HCT-15 colon and with SK-OV-3 ovarian was over 50 µM in each case.
As to `CC1CC/C(=C\c2ccc(F)cc2)C2=C1C(c1ccc(F)cc1)NC(=S)N2` (stereo not drawn), the TGI in the experiment with M14 melanoma, in the experiment on SF-268 CNS, with MDA-MB-231 breast, in the experiment on UO-31 renal, in the experiment with RXF 393 renal and in the experiment with KM12 colon was over 100 µM throughout. The TGI in the experiment on HCT-15 colon, in the experiment on U251 CNS and in the experiment on SK-OV-3 ovarian was over 100 µM throughout.
With `N#CC(NNC(=O)c1c(Cl)c(Cl)c(Cl)c(Cl)c1-c1nc2ccc(C(=O)c3ccccc3)cc2[nH]1)c1cccc(Oc2ccccc2)c1` (stereo not drawn), the TGI with M14 melanoma was 83.9 µM; in the experiment on MDA-MB-231 breast it was 45.2 µM; with UO-31 renal, over 100 µM; in the experiment with OVCAR-5 ovarian it was 80.3 µM; in the experiment with RXF 393 renal, 55.5 µM; in the experiment with KM12 colon, over 100 µM. Moreover, the TGI in the experiment on HCT-15 colon was 53.3 µM; in the experiment with U251 CNS, over 100 µM; in the experiment on SK-OV-3 ovarian it was over 100 µM.
With `Cc1cc(S(=O)(=O)Nc2n[nH]c(N)n2)c(S)cc1Cl`, the TGI with M14 melanoma, in the experiment with SF-268 CNS, in the experiment on MDA-MB-231 breast, in the experiment with OVCAR-5 ovarian, in the experiment on RXF 393 renal and in the experiment on KM12 colon was over 10 µM in each case. The TGI in the experiment on HCT-15 colon, with U251 CNS and with SK-OV-3 ovarian was over 10 µM each time.
As to `C=C1CC2C[C@H](OS(=O)(=O)c3ccc(C)cc3)C(C1)N2C` (stereo partly drawn), the TGI in the experiment on M14 melanoma, in the experiment with SF-268 CNS, with MDA-MB-231 breast, in the experiment with UO-31 renal, with RXF 393 renal and with KM12 colon was over 100 µM each time. The TGI in the experiment on HCT-15 colon, with U251 CNS and in the experiment on SK-OV-3 ovarian was over 100 µM each time.
Turning to `CCCCCCCCCCCCCCC(=O)NC(CCCCN)C(=O)CN1CCCC1C(=O)NCC(=O)NC(Cc1ccccc1)C(=O)N1CCCC1C(=O)NC(CO)C(=O)NC(Cc1ccc(O)cc1)C(=O)NC(CCCCN)C(=O)NC(CC(C)C)C(=O)NC(CCCN=C(N)N)C(=O)N1CCCC1C(=O)NCC(N)=O` (stereo not drawn) (Pentadecanoyl-[X12]GFPSYKLRPG-NH2; configuration not given here), the GI50 is 19.2 µM in the experiment with M14 melanoma; 22.4 µM in the experiment on SF-268 CNS; 16.7 µM in the experiment with MDA-MB-231 breast; 22.6 µM in the experiment with UO-31 renal; 18.7 µM in the experiment with OVCAR-5 ovarian; 26.1 µM in the experiment on RXF 393 renal. Further, the GI50 in the experiment on KM12 colon is 7.61 µM; in the experiment with SK-OV-3 ovarian, 23.5 µM. Moreover, the TGI with M14 melanoma turned out to be 39.8 µM; with SF-268 CNS, 52.9 µM; with MDA-MB-231 breast, 32.5 µM; in the experiment with UO-31 renal, 60.2 µM; in the experiment with OVCAR-5 ovarian, 44.4 µM; in the experiment with RXF 393 renal, 60.4 µM. For the same compound, the TGI with KM12 colon worked out at 38.7 µM; in the experiment on SK-OV-3 ovarian, 43.4 µM.
For the compound `Cc1nc2ccccc2nc1N1CCCC1`, the TGI in the experiment on M14 melanoma, in the experiment with SF-268 CNS, in the experiment on MDA-MB-231 breast, with OVCAR-5 ovarian, in the experiment with RXF 393 renal and in the experiment on KM12 colon was over 100 µM throughout. Also, the TGI in the experiment on HCT-15 colon, in the experiment on U251 CNS and with SK-OV-3 ovarian was over 100 µM each time.
Turning to `O=C(c1cccs1)N(C(=O)N1CCCCC1)c1ccccc1`, the TGI in the experiment with M14 melanoma, in the experiment on SF-268 CNS, with MDA-MB-231 breast, in the experiment with UO-31 renal, with RXF 393 renal and in the experiment on KM12 colon was over 100 µM throughout. Moreover, the TGI with HCT-15 colon, in the experiment with U251 CNS and in the experiment on SK-OV-3 ovarian was over 100 µM each time.
In the case of `Clc1ccc(C2=NNC(c3cccc(Cl)c3)C2)cc1` (stereo not drawn), the TGI in the experiment with M14 melanoma is over 100 µM; in the experiment with SF-268 CNS, over 100 µM; in the experiment on MDA-MB-231 breast it was 55.1 µM; with UO-31 renal, 21.4 µM; with OVCAR-5 ovarian, over 100 µM; in the experiment with RXF 393 renal, over 100 µM. The TGI in the experiment on KM12 colon is over 100 µM; in the experiment with U251 CNS, 37.5 µM; with SK-OV-3 ovarian, 78.1 µM.
